According to patent US20050037478A1, “Crystal structure of glutamate racemase (MurI)” (priority 2002, published 2005):
Substitutions are numbered along the chain they refer to.

Experiments:
[1] = molecular target: recombinant H. pylori MurI (Helicobacter pylori, UniProt Q9ZLT0)
From the text: Kinetic constant for recombinant MurI were estimated by assaying its activity at various concentrations of protein and D-glutamic acid as described above.

[2] = molecular target: T1, H. pylori MurI A75T mutant (Helicobacter pylori, UniProt Q9ZLT0, A75T); settings: reverse direction
T1 sequence (Q9ZLT0 1-255 A75T): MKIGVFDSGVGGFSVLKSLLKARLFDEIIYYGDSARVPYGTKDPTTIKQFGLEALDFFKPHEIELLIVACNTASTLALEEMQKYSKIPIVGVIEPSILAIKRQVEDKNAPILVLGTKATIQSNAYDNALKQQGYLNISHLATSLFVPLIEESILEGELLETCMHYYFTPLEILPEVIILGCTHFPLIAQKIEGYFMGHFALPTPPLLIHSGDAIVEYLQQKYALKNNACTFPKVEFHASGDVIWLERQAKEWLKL

[3] = system: MurI resistance mutant proteins (A75T or E151K); assay: Kinetic analysis of MurI resistance mutant proteins, forward direction (L-Glu→D-Glu); assay type: biochemical, H. pylori
Method: In this assay, the conversion of L-Glutamate to D-Glutamate was monitored spectrophotometrically through a two enzyme coupling system wherein, the production of D-glutamate is coupled to the incorporation of D-Glutamate into UDP-MurNAc-Ala-D-Glu by recombinant E. faecalis MurD, with concomitant hydrolysis of ATP to ADP and inorganic phosphate. […] Initial rates of reaction were determined by following the increase of absorbance at 360 nm in a 100 μL reaction volume containing 85 μL of reaction buffer (58 mM Tris, pH=8.0, 23.5 mM ammonium acetate, 23.5 mM magnesium acetate, 2.94 mM dithiothreitol, 2.94 mM adenosine triphosphate, 0.47 mM UDP-MurNAc-Ala, 0.47 mM MESG, 1.17 units./mL PNP, 16 μg/mL E. faecalis MurD, and 30 nM MurI) and 15 μL of L-Glutamate stock (0.05-10 mM). The increase in optical density at 360 nm was measured continuously in at 96 well microtitre plate in a Microplate Spectrophotometer System (Molecular Devices, SpectraMAX 250).

[4] = molecular target: the molecule itself; assay: X-ray crystallography, homodimer
[5] = molecular target: the molecule itself; assay: X-ray crystallography (molecular replacement), homodimer

Sequence of recombinant H. pylori MurI (Q9ZLT0 whole entry): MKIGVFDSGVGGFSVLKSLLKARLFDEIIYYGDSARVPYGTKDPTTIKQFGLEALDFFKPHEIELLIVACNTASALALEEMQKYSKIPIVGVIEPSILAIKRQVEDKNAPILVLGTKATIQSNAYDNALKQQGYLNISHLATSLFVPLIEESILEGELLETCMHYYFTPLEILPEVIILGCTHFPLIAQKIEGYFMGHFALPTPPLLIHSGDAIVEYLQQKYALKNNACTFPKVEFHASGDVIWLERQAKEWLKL

Molecule: N[C@H](CCC(=O)O)C(=O)O [D-glutamate]
- substrate inhibition [1]: Severe substrate inhibition
- Km ([1]; read-out: Km for D-glutamate): 100 µM
- shift of inhibition constant relative to the wild-type enzyme ([2]; mutant enzyme vs wild-type): > 120 fold
- substrate inhibition by D-glutamate ([2]; mutant enzyme): exhibits substrate inhibition

Molecule: N[C@@H](CCC(=O)O)C(=O)O [L-Glu, L-glutamate]
- elevation of KM for L-Glu relative to the native enzyme [3]: 10 fold
- substrate inhibition by L-Glu [3]: no substrate inhibition

B1: Helicobacter pylori glutamate racemase (MurI), monomer chain of the homodimer (enzyme)
chain: T1 sequence (Q9ZLT0 1-255 A75T) with T75A
notes: also called H. pylori MurI; H. pylori glutamate racemase
- binding result [4]: binds

B2: Enterococcus faecalis glutamate racemase (MurI), monomer chain of the homodimer (enzyme)
chain: MSNQEAIGLIDSGVGGLTVLKEALKQLPNERLIYLGDTARCPYGPRPAEQVVQFTWEMADFLLKKRIKMLVIACNTATAVALEEIKAALPIPVVGVILPGARAAVKVTKNNKIGVIGTLGTIKSASYEIAIKSKAPAIEVTSLACPKFVPIVESNQYRSSVAKKIVAETLQALQLKGLDTLILGCTHYPLLRPVIQNVMGSHVTLIDSGAETVGEVSMLLDYFDIAHTPEAPTQPHEFYTTGSAKMFEEIASSWLGIENLKAQQIHLGGNEND
notes: also called E. faecalis MurI; E. faecalis glutamate racemase
- binding result [4]: binds

B3: Enterococcus faecium glutamate racemase (MurI), monomer chain of the homodimer (enzyme)
chain: MIRLTDNRPIGFIDSGVGGLTVVKEALKQLPNENILFVGDTARCPYGPRPAEQVIQYTWEMTDYLVEQGIKMLVIACNTATAVALEEIKAALSIPVIGVILPGTRAAVKKTQNKQVGIIGTIGTVKSQAYEKALKEKVPELTVTSLACPKFVSVVESNEYHSSVAKKIVAETLAPLTTKKIDTLILGCTHYPLLRPIIQNVMGENVQLIDSGAETVGEVSMLLDYFNLSNSPQNGRTLCQFYTTGSAKLFEEIAEDWLGIGHLNVEHIELGGK
notes: also called E. faecium MurI; EF2
- binding result [5]: binds
